Laboratory results from PubChem BioAssay (NCI).
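Where inhibition never reached the appropriate level, the endpoint shown equals the highest concentration tested. Otherwise, values were interpolated linearly from a five-concentration, 48-hour dose response in 96-well plates. At the TGI there is no net growth.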

Legend:
Experiment in all cases: NCI anticancer screen, dose series, 48 h
SNB-19 CNS = tested on: SNB-19 CNS
786-0 renal = tested on: 786-0 renal
M14 melanoma = tested on: M14 melanoma
SK-MEL-28 melanoma = tested on: SK-MEL-28 melanoma
RXF-631 renal = tested on: RXF-631 renal
CAKI-1 renal = tested on: CAKI-1 renal
HOP-92 NSCLC = tested on: HOP-92 NSCLC
HCC-2998 colon = tested on: HCC-2998 colon
LXFL 529 NSCLC = tested on: LXFL 529 NSCLC
IGROV1 ovarian = tested on: IGROV1 ovarian
CCRF-CEM leukemia = tested on: CCRF-CEM leukemia
UO-31 renal = tested on: UO-31 renal
RPMI-8226 leukemia = tested on: RPMI-8226 leukemia
TK-10 renal = tested on: TK-10 renal
HT29 colon = tested on: HT29 colon
SNB-78 CNS = tested on: SNB-78 CNS
SR leukemia = tested on: SR leukemia
UACC-257 melanoma = tested on: UACC-257 melanoma
NCI-H226 lung = tested on: NCI-H226 lung
A549 NSCLC = tested on: A549 NSCLC
A498 renal = tested on: A498 renal
HCT-116 colon = tested on: HCT-116 colon
K-562 leukemia = tested on: K-562 leukemia
OVCAR-4 ovarian = tested on: OVCAR-4 ovarian
EKVX NSCLC = tested on: EKVX NSCLC
SF-539 CNS = tested on: SF-539 CNS
MALME-3M melanoma = tested on: MALME-3M melanoma
SK-MEL-2 melanoma = tested on: SK-MEL-2 melanoma
HOP-62 NSCLC = tested on: HOP-62 NSCLC
SK-OV-3 ovarian = tested on: SK-OV-3 ovarian
NCI-H23 lung = tested on: NCI-H23 lung
COLO 205 colon = tested on: COLO 205 colon
SF-295 CNS = tested on: SF-295 CNS
OVCAR-3 ovarian = tested on: OVCAR-3 ovarian
DMS 273 small cell lung = tested on: DMS 273 small cell lung
SF-268 CNS = tested on: SF-268 CNS
SN12C renal = tested on: SN12C renal
MOLT-4 leukemia = tested on: MOLT-4 leukemia
HL-60(TB) leukemia = tested on: HL-60(TB) leukemia
M19-MEL melanoma = tested on: M19-MEL melanoma
LOX IMVI melanoma = tested on: LOX IMVI melanoma
XF 498 CNS = tested on: XF 498 CNS
UACC-62 melanoma = tested on: UACC-62 melanoma
SW-620 colon = tested on: SW-620 colon
NCI-H522 lung = tested on: NCI-H522 lung
SNB-75 CNS = tested on: SNB-75 CNS
DMS 114 small cell lung = tested on: DMS 114 small cell lung
KM12 colon = tested on: KM12 colon
OVCAR-8 ovarian = tested on: OVCAR-8 ovarian
DLD-1 colon = tested on: DLD-1 colon
NCI-H460 lung = tested on: NCI-H460 lung
HOP-18 NSCLC = tested on: HOP-18 NSCLC
U251 CNS = tested on: U251 CNS
ACHN renal = tested on: ACHN renal
SK-MEL-5 melanoma = tested on: SK-MEL-5 melanoma
OVCAR-5 ovarian = tested on: OVCAR-5 ovarian

CC1(CO)C(=O)OC12CCCCC2 (centres undefined)
TGI (SNB-19 CNS): > 100 µM
TGI (786-0 renal): > 100 µM
TGI (M14 melanoma): > 100 µM
TGI (SK-MEL-28 melanoma): > 100 µM
TGI (RXF-631 renal): > 100 µM
TGI (CAKI-1 renal): > 100 µM
TGI (HOP-92 NSCLC): > 100 µM
TGI (HCC-2998 colon): > 100 µM
TGI (LXFL 529 NSCLC): > 100 µM
TGI (IGROV1 ovarian): > 100 µM
TGI (CCRF-CEM leukemia): > 100 µM
TGI (UO-31 renal): > 100 µM
TGI (RPMI-8226 leukemia): > 100 µM
TGI (TK-10 renal): > 100 µM
TGI (HT29 colon): > 100 µM
TGI (SNB-78 CNS): > 100 µM
TGI (SR leukemia): > 100 µM
TGI (UACC-257 melanoma): > 100 µM
TGI (NCI-H226 lung): > 100 µM
TGI (A549 NSCLC): > 100 µM
TGI (A498 renal): > 100 µM
TGI (HCT-116 colon): > 100 µM
TGI (K-562 leukemia): > 100 µM
TGI (OVCAR-4 ovarian): > 100 µM
TGI (EKVX NSCLC): > 100 µM
TGI (SF-539 CNS): > 100 µM
TGI (MALME-3M melanoma): > 100 µM
TGI (SK-MEL-2 melanoma): > 100 µM
TGI (HOP-62 NSCLC): > 100 µM
TGI (SK-OV-3 ovarian): > 100 µM
TGI (NCI-H23 lung): > 100 µM
TGI (COLO 205 colon): > 100 µM
TGI (SF-295 CNS): > 100 µM
TGI (OVCAR-3 ovarian): > 100 µM
TGI (DMS 273 small cell lung): > 100 µM
TGI (SF-268 CNS): > 100 µM
TGI (SN12C renal): > 100 µM
TGI (MOLT-4 leukemia): > 100 µM
TGI (HL-60(TB) leukemia): > 100 µM
TGI (M19-MEL melanoma): > 100 µM
TGI (LOX IMVI melanoma): > 100 µM
TGI (XF 498 CNS): > 100 µM
TGI (UACC-62 melanoma): > 100 µM
TGI (SW-620 colon): > 100 µM
TGI (NCI-H522 lung): > 100 µM
TGI (SNB-75 CNS): > 100 µM
TGI (DMS 114 small cell lung): > 100 µM
TGI (KM12 colon): > 100 µM
TGI (OVCAR-8 ovarian): > 100 µM
TGI (DLD-1 colon): > 100 µM

Cn1cnc([N+](=O)[O-])c1Sc1nnc(C(F)(F)F)n1C
TGI (SNB-19 CNS): > 100 µM
TGI (786-0 renal): > 100 µM
TGI (NCI-H460 lung): > 100 µM
TGI (M14 melanoma): 37.2 µM
TGI (SK-MEL-28 melanoma): 38.1 µM
TGI (RXF-631 renal): 39.6 µM
TGI (CAKI-1 renal): > 100 µM
TGI (HOP-92 NSCLC): 34.7 µM
TGI (HOP-18 NSCLC): 76.2 µM
TGI (HCC-2998 colon): > 100 µM
TGI (LXFL 529 NSCLC): 27.8 µM
TGI (IGROV1 ovarian): > 100 µM
TGI (CCRF-CEM leukemia): 48.4 µM
TGI (UO-31 renal): > 100 µM
TGI (RPMI-8226 leukemia): 49.9 µM
TGI (TK-10 renal): 74.4 µM
TGI (HT29 colon): > 100 µM
TGI (U251 CNS): 37.2 µM
TGI (SNB-78 CNS): > 100 µM
TGI (SR leukemia): 45 µM
TGI (UACC-257 melanoma): 32.9 µM
TGI (NCI-H226 lung): > 100 µM
TGI (A549 NSCLC): > 100 µM
TGI (A498 renal): > 100 µM
TGI (HCT-116 colon): 32.5 µM
TGI (K-562 leukemia): 63.6 µM
TGI (OVCAR-4 ovarian): 62.6 µM
TGI (EKVX NSCLC): > 100 µM
TGI (SF-539 CNS): 65.7 µM
TGI (MALME-3M melanoma): 44 µM
TGI (SK-MEL-2 melanoma): 48.5 µM
TGI (HOP-62 NSCLC): > 100 µM
TGI (SK-OV-3 ovarian): > 100 µM
TGI (NCI-H23 lung): > 100 µM
TGI (COLO 205 colon): 28.8 µM
TGI (SF-295 CNS): > 100 µM
TGI (OVCAR-3 ovarian): 55.6 µM
TGI (DMS 273 small cell lung): 87.5 µM
TGI (SF-268 CNS): > 100 µM
TGI (SN12C renal): > 100 µM
TGI (MOLT-4 leukemia): 38.2 µM
TGI (M19-MEL melanoma): 37.2 µM
TGI (LOX IMVI melanoma): 30.5 µM
TGI (ACHN renal): 57.4 µM
TGI (UACC-62 melanoma): 33.5 µM
TGI (SW-620 colon): 43.3 µM
TGI (SK-MEL-5 melanoma): > 100 µM
TGI (NCI-H522 lung): 23.9 µM
TGI (OVCAR-5 ovarian): > 100 µM
TGI (SNB-75 CNS): > 100 µM
TGI (DMS 114 small cell lung): > 100 µM
TGI (KM12 colon): > 100 µM
TGI (OVCAR-8 ovarian): 67.8 µM
TGI (DLD-1 colon): 33.5 µM
